Source: ChEMBL document CHEMBL4808207, “Macrocyclic Peptides as a Novel Class of NNMT Inhibitors: A SAR Study Aimed at Inhibitory Activity in the Cell” (ACS Med Chem Lett, 2021)
Bridge positions count the residues as written; N and C are the ends. Square brackets hold non-standard residues; d marks the D form. Peptide text beside a SMILES is read from it. Phe(4-CONH2) = NC(=O)c1ccc(C[C@H](N)C(=O)O)cc1; NMeY = CN[C@@H](Cc1ccc(O)cc1)C(=O)O; NMeF = CN[C@@H](Cc1ccccc1)C(=O)O; 3Pal = N[C@@H](Cc1cccnc1)C(=O)O; Tic = O=C(O)[C@@H]1Cc2ccccc2CN1

Experiments:
[1] = target: T1, Nicotinamide N-methyltransferase (Mus musculus, UniProt O55239); experiment: Inhibition of mouse recombinant NNMT using nicotinamide and SAM as substrate assessed as reduction in 1-methyl-nicotinamide formation incubated for 2 hrs by RapidFire Mass spectroscopy
T1 sequence (O55239 whole entry): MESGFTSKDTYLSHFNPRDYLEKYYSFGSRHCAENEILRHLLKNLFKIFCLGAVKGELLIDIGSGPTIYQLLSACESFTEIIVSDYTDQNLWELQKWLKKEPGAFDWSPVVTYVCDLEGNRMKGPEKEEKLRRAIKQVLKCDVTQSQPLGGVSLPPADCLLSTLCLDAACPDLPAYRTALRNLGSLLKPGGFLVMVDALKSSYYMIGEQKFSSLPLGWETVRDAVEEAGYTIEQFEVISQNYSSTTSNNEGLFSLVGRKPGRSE

[2] = target: T1, Nicotinamide N-methyltransferase; experiment: Inhibition of mouse recombinant NNMT using nicotinamide and SAM as substrate assessed as reduction in 1-methyl-nicotinamide formation incubated for 22 to 24 hrs by RapidFire Mass spectroscopy
[3] = target: T2, Nicotinamide N-methyltransferase (Homo sapiens, UniProt P40261); experiment: Inhibition of human recombinant NNMT using nicotinamide and SAM as substrate assessed as reduction in 1-methyl-nicotinamide formation incubated for 22 to 24 hrs by RapidFire Mass spectroscopy
T2 sequence (P40261 whole entry): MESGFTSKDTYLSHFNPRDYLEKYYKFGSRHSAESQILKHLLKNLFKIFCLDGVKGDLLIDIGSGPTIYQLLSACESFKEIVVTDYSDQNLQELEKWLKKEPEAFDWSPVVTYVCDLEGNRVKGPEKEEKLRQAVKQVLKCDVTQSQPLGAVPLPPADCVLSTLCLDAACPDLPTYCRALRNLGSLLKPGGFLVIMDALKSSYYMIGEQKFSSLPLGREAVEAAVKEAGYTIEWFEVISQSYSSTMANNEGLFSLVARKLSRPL

IC50 [1] [µM] | IC50 [2] [µM] | IC50 [3] [µM] | Compound
 | > 100 | > 100 | CN1C(=O)CSC[C@@H](C(N)=O)NC(=O)[C@H](Cc2ccc(C(N)=O)cc2)NC(=O)[C@@H]2Cc3ccccc3CN2C(=O)[C@@H]2CCCN2C(=O)[C@H](Cc2c[nH]cn2)NC(=O)[C@H](Cc2ccc(O)cc2)NC(=O)[C@@H]2CCCN2C(=O)[C@@H]1Cc1ccccc1 ({CH2CO}-[NMeF]PYHP[Tic][Phe(4-CONH2)]C-NH2; thioether N-8)
 | > 100 | > 100 | CN1C(=O)CSC[C@@H](C(N)=O)NC(=O)[C@H](Cc2ccc(C(N)=O)cc2)NC(=O)[C@@H]2Cc3ccccc3CN2C(=O)[C@@H]2CCCN2C(=O)[C@H](Cc2cccnc2)NC(=O)[C@H](Cc2ccc(O)cc2)NC(=O)[C@@H]2CCCN2C(=O)[C@@H]1Cc1ccccc1 ({CH2CO}-[NMeF]PY[3Pal]P[Tic][Phe(4-CONH2)]C-NH2; thioether N-8)

More lines, now with the values behind:

Compound | IC50 [1] [µM] | IC50 [2] [µM] | IC50 [3] [µM]
CC[C@H](C)[C@@H]1NC(=O)[C@H](CC(C)C)NC(=O)[C@@H]2CCCN2C(=O)[C@H](Cc2ccccc2)NC(=O)CSC[C@@H](C(N)=O)NC(=O)CNC(=O)[C@H](CCCCN)NC(=O)[C@H](CCCNC(=N)N)NC(=O)[C@@H]2CCCN2C(=O)[C@H](Cc2ccccc2)NC1=O ({CH2CO}-FPLIFPRKGC-NH2; thioether N-10) | > 30 |  | 
CC[C@H](C)[C@@H]1NC(=O)[C@H](CC(C)C)NC(=O)[C@@H]2CCCN2C(=O)[C@H](Cc2ccccc2)NC(=O)CSC[C@@H](C(=O)NCC(N)=O)NC(=O)CNC(=O)[C@H](CCCCN)NC(=O)[C@H](CCCNC(=N)N)NC(=O)[C@@H]2CCCN2C(=O)[C@H](Cc2ccccc2)NC1=O ({CH2CO}-FPLIFPRKGCG-NH2; thioether N-10) | 0.243 |  | 
CN1C(=O)[C@@H]2CCCN2C(=O)[C@H](Cc2ccccc2)NC(=O)CSC[C@@H](C(N)=O)NC(=O)[C@H](Cc2ccc(C(N)=O)cc2)NC(=O)[C@@H]2Cc3ccccc3CN2C(=O)[C@@H]2CCCN2C(=O)[C@H](CCCNC(=N)N)NC(=O)[C@@H]1Cc1ccc(O)cc1 ({CH2CO}-FP[NMeY]RP[Tic][Phe(4-CONH2)]C-NH2; thioether N-8) |  | > 30 | > 30
